In paper PMC7699745, “The Search for New Anticonvulsants in a Group of (2,5-Dioxopyrrolidin-1-yl)(phenyl)Acetamides with Hybrid Structure—Synthesis and In Vivo/In Vitro Studies” (International Journal of Molecular Sciences, 2020):
Read-outs that look alike come from different tables or passages of the source.

Columns and labels:
Cav2.2 channel = target: T1, Cav2.2 channel (Rattus norvegicus, UniProt Q02294); assay: Radioligand binding, Cav2.2 channel; design: dose or concentration left out as unconfirmed; conditions: rat cerebral cortex; read-out: % Inhibition of Control Specific Binding, Cav2.2 Channel (Antagonist Radioligand)
T1 construct: tissue Eurofins (Poitiers, France), contract assay; host or cells: rat cerebral cortex (own knowledge of the vendor's assay)
Procedure: (§1) Taking into consideration the structural similarities of molecules described in the current manuscript with their chemical prototypes AS-1 and DK-1, the binding studies toward aforementioned molecular targets were performed commercially for several active substances from each subseries (3, 4, 21, 24, 25, 27, 29, and 30). Furthermore, we also tested two other and well-known targets for AEDs, namely, the Cav2.2 (N-type) calcium channel and gamma-aminobutyric acid (GABA)-A receptor. With the aim of excluding potentially dangerous proarrhythmic properties for each compound, their interaction with the potassium (hERG) channel was also tested.
(§2) Binding studies were carried out commercially in Eurofines Laboratories (Poitiers, France). The functional assays were performed in Eurofins Panlabs Discovery Services Taiwan, Ltd. (New Taipei City, Taiwan). All procedures are described elsewhere (for details, see Table S4 in Supplementary Materials).
(§3) Binding studies were carried out commercially in Eurofines Laboratories (Poitiers, France). The
(§4) functional assays were performed in Eurofins Panlabs Discovery Services Taiwan, Ltd. (New Taipei
(§5) City, Taiwan). All procedures are described elsewhere (Table S4).
(§6) Table S4. In vitro binding and functional assays.
(§7) GABA-A receptor (α1,β2,γ2)
(§8) Potassium channel (hERG) 14
(§9) Cav1.2 (h) calcium ion channel cell based antagonist calcium flux assay 16,17

[1] = Rotarod test for acute neurological toxicity; conditions: mouse, in vivo, ip
[2] = tested on: motor coordination of mice; assay: Rotarod test for acute neurological toxicity; conditions: for Rotarod test, number of mice / number of mice tested: i.p., 100 mg/kg, 0.5 h
[3] = tested on: 6 Hz (32 mA) seizures, mice; assay: Psychomotor 6 Hz (32 mA) seizure model; type: in vivo; conditions: Mus musculus, ip; for responders at 100 mg/kg: 0.5 h, read-out: 6 Hz (32 mA) test, number of mice protected / number of mice tested (converted)
MES seizures, mice = assay: Maximal electroshock (MES) seizure test; type: in vivo; conditions: Mus musculus, ip; for responders at 100 mg/kg: 0.5 h, i.p.; for ED50: at TPE (0.5 h; LTG 1.0 h), 95% confidence intervals in parentheses
[4] = target: T2, GABA-A receptor (α1,β2,γ2) (Homo sapiens, UniProt P14867+P47870); assay: Radioligand binding, GABA-A receptor; design: dose or concentration left out as unconfirmed; conditions: rat cerebral cortex; read-out: % Inhibition of Control Specific Binding, GABA-A Receptor (α1,β2,γ2) (Agonist Radioligand)
T2 construct: Eurofins (Poitiers, France), contract assay
Procedure: as §1, §2, §3, §4, §5, §6, §7, §8, §9

Potassium channel (hERG) = target: T3, Potassium channel (hERG) (Homo sapiens, UniProt Q12809); assay: Binding, potassium channel (hERG); conditions: 100 µM; human recombinant (HEK-293 cells)
T3 construct: Eurofins (Poitiers, France), contract assay
T3 sequence (Q12809 whole entry): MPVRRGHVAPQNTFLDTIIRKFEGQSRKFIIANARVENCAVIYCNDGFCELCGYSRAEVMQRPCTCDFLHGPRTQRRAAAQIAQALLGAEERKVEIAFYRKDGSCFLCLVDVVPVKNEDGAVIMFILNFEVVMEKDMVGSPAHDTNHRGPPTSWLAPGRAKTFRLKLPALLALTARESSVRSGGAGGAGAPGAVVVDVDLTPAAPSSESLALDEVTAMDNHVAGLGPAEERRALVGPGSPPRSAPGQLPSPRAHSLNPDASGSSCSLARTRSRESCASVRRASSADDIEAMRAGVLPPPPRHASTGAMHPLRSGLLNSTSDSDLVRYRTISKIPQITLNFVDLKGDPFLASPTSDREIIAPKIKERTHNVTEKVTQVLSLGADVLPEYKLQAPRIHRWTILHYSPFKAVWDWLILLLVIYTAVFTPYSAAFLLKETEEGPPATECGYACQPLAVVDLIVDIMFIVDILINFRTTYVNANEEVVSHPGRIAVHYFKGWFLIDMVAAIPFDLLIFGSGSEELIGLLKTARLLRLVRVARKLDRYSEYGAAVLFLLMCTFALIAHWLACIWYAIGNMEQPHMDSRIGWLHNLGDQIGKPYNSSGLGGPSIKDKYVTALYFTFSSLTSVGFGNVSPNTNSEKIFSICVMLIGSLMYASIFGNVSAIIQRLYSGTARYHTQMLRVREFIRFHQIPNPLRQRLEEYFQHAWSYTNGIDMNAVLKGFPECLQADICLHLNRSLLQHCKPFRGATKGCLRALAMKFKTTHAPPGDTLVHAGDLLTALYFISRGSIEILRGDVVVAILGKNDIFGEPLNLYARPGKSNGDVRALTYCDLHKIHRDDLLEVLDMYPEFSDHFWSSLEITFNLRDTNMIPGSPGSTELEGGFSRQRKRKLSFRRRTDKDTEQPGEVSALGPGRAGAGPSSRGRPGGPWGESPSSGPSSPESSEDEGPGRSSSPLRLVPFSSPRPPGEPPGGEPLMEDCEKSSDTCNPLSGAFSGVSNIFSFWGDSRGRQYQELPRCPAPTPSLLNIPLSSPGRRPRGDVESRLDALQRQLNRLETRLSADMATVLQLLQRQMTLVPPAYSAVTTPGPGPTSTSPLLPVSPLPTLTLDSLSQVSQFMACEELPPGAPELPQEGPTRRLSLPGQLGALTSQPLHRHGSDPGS
Procedure: as §1, §2, §3, §4, §5, §6, §7, §8, §9

Cav1.2 channel = target: T4, Cav1.2 channel (Rattus norvegicus, UniProt P22002); assay: Radioligand binding, Cav1.2 channel; design: inhibition: dose or concentration left out as unconfirmed; conditions: for inhibition: rat cerebral cortex, read-out: % Inhibition of Control Specific Binding, Cav1.2 Channel (Antagonist Radioligand)
T4 construct: tissue Eurofins (Poitiers, France), contract assay; host or cells: rat cerebral cortex (own knowledge of the vendor's assay)
T4 sequence (P22002 whole entry): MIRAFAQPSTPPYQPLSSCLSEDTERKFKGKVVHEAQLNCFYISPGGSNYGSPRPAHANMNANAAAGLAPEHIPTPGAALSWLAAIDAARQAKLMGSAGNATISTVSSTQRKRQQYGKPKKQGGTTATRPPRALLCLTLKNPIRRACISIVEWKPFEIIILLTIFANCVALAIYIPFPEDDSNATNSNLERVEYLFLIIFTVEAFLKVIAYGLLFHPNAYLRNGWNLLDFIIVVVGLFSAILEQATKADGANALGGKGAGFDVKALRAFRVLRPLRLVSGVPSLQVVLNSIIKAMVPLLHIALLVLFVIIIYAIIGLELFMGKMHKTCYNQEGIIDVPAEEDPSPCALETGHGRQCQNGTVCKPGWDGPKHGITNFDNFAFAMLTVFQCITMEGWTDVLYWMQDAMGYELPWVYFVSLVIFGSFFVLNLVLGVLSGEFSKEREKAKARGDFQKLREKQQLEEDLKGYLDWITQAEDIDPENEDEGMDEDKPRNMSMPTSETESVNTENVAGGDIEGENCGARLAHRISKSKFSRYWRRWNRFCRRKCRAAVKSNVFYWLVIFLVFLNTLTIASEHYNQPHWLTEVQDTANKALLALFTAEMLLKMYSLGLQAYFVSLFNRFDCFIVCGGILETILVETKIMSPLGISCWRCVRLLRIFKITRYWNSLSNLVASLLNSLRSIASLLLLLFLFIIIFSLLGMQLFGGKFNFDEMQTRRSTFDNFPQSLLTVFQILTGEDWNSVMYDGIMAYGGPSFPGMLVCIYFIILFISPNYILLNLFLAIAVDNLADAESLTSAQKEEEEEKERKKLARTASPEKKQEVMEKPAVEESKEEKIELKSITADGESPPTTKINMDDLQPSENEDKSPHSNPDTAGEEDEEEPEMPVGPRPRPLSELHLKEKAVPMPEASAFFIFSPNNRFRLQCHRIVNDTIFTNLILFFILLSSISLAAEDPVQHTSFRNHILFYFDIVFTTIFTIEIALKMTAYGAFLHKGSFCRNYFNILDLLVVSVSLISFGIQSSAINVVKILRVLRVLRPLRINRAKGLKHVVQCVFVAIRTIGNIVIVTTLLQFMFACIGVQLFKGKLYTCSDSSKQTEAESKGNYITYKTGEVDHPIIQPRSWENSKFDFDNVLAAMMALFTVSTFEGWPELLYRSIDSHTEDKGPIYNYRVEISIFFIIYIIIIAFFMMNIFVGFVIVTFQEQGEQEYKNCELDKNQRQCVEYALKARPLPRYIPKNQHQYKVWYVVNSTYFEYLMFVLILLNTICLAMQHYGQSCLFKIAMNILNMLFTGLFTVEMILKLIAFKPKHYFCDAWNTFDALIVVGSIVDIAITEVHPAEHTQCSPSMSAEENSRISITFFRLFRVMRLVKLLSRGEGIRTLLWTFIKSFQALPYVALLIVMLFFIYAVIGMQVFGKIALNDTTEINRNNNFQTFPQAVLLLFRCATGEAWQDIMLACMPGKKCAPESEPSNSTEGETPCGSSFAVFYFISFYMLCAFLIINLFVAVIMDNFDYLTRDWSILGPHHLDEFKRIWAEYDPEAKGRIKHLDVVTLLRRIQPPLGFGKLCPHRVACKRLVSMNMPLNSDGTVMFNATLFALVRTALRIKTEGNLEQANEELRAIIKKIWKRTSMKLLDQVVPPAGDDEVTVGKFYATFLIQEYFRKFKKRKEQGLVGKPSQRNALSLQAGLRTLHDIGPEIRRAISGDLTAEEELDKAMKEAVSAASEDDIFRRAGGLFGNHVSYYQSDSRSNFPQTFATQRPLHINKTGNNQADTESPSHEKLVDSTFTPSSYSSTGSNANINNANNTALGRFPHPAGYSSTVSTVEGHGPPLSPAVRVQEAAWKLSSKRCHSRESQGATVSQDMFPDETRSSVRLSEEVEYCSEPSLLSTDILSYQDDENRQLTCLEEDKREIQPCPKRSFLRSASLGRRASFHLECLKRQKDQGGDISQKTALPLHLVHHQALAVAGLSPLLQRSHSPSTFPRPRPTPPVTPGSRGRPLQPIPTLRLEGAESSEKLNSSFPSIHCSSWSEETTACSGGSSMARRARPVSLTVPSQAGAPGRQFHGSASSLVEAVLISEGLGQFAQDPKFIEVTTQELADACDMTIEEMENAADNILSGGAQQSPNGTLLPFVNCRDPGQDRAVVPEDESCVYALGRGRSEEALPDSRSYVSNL
T4 sequence (P54287 whole entry partner): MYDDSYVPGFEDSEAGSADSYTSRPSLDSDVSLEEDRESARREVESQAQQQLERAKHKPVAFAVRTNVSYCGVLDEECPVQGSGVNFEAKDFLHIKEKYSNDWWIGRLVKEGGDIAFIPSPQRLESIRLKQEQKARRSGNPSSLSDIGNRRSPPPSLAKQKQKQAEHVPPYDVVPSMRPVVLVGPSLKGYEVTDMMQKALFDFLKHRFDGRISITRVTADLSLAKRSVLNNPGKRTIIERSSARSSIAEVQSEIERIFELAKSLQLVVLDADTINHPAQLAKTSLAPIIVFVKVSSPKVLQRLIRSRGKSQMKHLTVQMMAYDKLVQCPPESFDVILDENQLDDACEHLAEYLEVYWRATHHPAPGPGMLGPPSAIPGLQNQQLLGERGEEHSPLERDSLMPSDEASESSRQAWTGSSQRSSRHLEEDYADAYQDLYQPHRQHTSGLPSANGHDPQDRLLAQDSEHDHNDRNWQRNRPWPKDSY
T4 sequence (P54290 25-944 partner limits assumed): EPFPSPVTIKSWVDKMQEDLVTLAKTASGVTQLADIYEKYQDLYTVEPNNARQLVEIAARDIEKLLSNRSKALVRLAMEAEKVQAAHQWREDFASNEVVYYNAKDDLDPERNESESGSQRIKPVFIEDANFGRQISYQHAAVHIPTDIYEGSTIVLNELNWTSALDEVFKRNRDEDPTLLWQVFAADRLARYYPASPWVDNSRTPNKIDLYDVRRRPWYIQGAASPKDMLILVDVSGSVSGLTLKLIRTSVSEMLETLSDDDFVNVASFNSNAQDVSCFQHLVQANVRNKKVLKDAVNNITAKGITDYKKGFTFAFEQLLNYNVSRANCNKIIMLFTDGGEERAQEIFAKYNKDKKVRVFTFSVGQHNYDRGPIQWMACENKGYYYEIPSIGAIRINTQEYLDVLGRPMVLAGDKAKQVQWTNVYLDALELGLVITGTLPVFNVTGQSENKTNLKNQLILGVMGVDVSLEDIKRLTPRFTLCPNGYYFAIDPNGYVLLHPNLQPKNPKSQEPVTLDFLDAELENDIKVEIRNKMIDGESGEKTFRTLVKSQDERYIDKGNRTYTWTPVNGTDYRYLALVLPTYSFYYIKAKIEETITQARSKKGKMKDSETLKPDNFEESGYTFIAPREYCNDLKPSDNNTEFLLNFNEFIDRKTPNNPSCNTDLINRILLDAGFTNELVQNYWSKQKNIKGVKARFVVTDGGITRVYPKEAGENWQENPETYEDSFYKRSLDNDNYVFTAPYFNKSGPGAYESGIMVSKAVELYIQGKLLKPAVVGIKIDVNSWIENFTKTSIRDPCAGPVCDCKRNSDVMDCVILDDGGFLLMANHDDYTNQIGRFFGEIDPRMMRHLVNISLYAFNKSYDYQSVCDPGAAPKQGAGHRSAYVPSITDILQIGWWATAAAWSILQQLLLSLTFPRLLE
T4 sequence (P54290 945-1091 partner limits assumed): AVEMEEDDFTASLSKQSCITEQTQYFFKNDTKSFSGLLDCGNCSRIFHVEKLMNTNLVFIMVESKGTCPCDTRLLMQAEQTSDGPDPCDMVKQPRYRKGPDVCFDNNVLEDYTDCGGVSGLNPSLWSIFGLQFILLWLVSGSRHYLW
Procedure: as §1, §2, §3, §4, §5, §6, §7, §8, §9

[5] = tested on: formalin-induced nociceptive response, mice; assay: Formalin test of tonic pain; type: in vivo; conditions: for ED50: Mus musculus, ip, i.p. 30 min before test
Procedure: AEDs are also commonly used in the treatment of neuropathic pain and other central pain conditions. Therefore, with an aim of further pharmacological characterization of compounds described herein, we decided to study their antinociceptive properties in the in vivo assays. […] At first, both aforementioned compounds were tested in the formalin-induced tonic pain model, which is recognized as a valuable screening tool. In this test, the injection of formalin into the plantar surface of the mouse paw produces specific behaviors like paw lifting, flinching, and licking. […] Moreover, it has been reported that formalin induces pathological changes that resemble those observed in nerve injury and neuropathic pain [24]. Thus, this test has been successfully used to assess the analgesic efficacy of a variety of compounds such as opioids, nonsteroidal anti-inflammatory drugs (NSAIDs), corticosteroids, and N-methyl-D-aspartate (NMDA) receptor antagonists, as well as AEDs such as carbamazepine, topiramate, or gabapentin [26, 27].
As mentioned above, we investigated the analgesic properties of two of the most promising and interesting compounds: 4 and 30.
The experimental groups consisted of 6–12 adult male Albino Swiss mice (CD-1, 18–25 g). Each animal was tested only once. Immediately after the assay, the animals were sacrificed by cervical dislocation. Behavioral measurements were observed by trained observers. The in vivo antinociceptive assays were in accordance with Polish regulations and European Union Directive of 22 September 2010 (2010/63/EU). All procedures were carried out according to the rules of the International Council on Laboratory Animal Science (ICLAS) and were approved by the Local Ethical Committee in Cracow, Poland (approval No 104/2015, 111/2016, and 179/2017). The tested substances were suspended in 1% aqueous solution of Tween-80 and were injected i.p. 30 min prior to the test. Control group animals (negative control) were administered with an appropriate amount of vehicle (Tween-80, 1% aqueous solution, i.p.) 30 min prior to the test.
The experimental in vivo procedures were previously reported for the formalin test; compounds 4 and 30 were tested in three doses—40, 80, 120 mg/kg (4), and 20, 40, 80 mg/kg (30). […] The in vivo procedure for the model of capsaicin-induced nociception was previously reported; the animals were pretreated with vehicle (10 mL/kg, negative control) and the dose–response of investigated compounds was evaluated at 40, 80, 120 mg/kg (4), and 20, 40, 80 mg/kg (30). […]
Data are presented as means ± standard error of the mean (SEM). […] Statistically significant differences between groups were calculated using one-way analysis of variance (ANOVA) and the post hoc Dunnett’s multiple comparison test or two-way analysis of variance (ANOVA). […]

CYP2C9 = CYP2C9 (Homo sapiens, UniProt P11712); assay: Luminescent CYP2C9 P450-Glo assay; conditions: 10 and 25 µM
[6] = read-out: MES test, number of mice protected / number of mice tested (converted)
[7] = phase II 15–30 min, read-out: ED50, formalin test phase II

O=C(Nc1ccccc1F)C(c1ccccc1)N1C(=O)CCC1=O (stereo not drawn) [Compound 4, 2-(2,5-Dioxopyrrolidin-1-yl)-N-(2-fluorophenyl)-2-phenylacetamide]
inhibition (Cav2.2 channel): 1.1%
TD50 at 0.5 h [1]: > 300 mg/kg
impairment of motor coordination of mice ([2]; doses as high as 300 mg/kg): did not impair motor coordination
Rotarod test, number of mice / number of mice tested [2]: 0/4
responders at 100 mg/kg [3]: 25%
responders at 100 mg/kg (MES seizures, mice; [6]): 100%
ED50 (MES seizures, mice): 73.2 mg/kg
inhibition [4]: 2.8%
melting point: 106.6 to 107.1 °C
% Inhibition of Control Specific Binding, Potassium Channel (hERG) (Potassium channel (hERG)): 2.3%
inhibition (Cav1.2 channel): 5%
ED50 [5, 7]: 98.9 mg/kg
attenuation of nociceptive response, formalin test first phase ([5]; i.p., doses 40, 80, 120 mg/kg): statistically significant only at the highest dose of 120 mg/kg
effect on CYP2C9 activity (CYP2C9): blocked its activity

O=C(NCCc1cccc(OC(F)(F)F)c1)C(c1ccccc1)N1C(=O)CCC1=O (stereo not drawn) [Compound 30, 2-(2,5-Dioxopyrrolidin-1-yl)-2-phenyl-N-(3-(trifluoromethoxy)phenethyl)acetamide]
inhibition (Cav2.2 channel): 4%
TD50 at 0.5 h [1]: 162 mg/kg
Rotarod test, number of mice / number of mice tested [2]: 0/4
responders at 100 mg/kg [3]: 75%
ED50 ([3]; at TPE (0.5 h; LTG 1.0 h), 95% confidence intervals in parentheses): 39.5 mg/kg
responders at 100 mg/kg (MES seizures, mice; groups of four, read-out: protection in the MES test): 100%
responders at 100 mg/kg (MES seizures, mice; [6]): 100%
ED50 (MES seizures, mice): 45.6 mg/kg
inhibition [4]: 0.3%
melting point: 113.3 to 114.2 °C
% Inhibition of Control Specific Binding, Potassium Channel (hERG) (Potassium channel (hERG)): 1.7%
binding to voltage-gated calcium channels Cav1.2 (Cav1.2 channel; concentration of 10 µM): moderate binding
inhibition (Cav1.2 channel): 47.6%
ED50 ([5]; phase I 0–5 min, read-out: ED50, formalin test phase I): 21.5 mg/kg
ED50 [5, 7]: 24.8 mg/kg
effect on CYP2C9 activity (CYP2C9): blocked its activity
